According to patent US12257227B2, “Combination solution for treating chemotherapy refractory cancer” (1GLOBE BIOMEDICAL CO., LTD., priority 2018, dated 2025):

Columns and labels:
[1] = system: p-STAT3 and β-catenin; assay: Immunofluorescence of cancer stem cell markers in xenograft tumors; type: in vivo, mice; conditions: FIG. 5; tumors collected 24 hours after first dose; e.g. 50 mg/kg BID oral gavage
Protocol: Detection of the effects of 2-acetylnaphtho[2,3-b]furan-4,9-dione with or without paclitaxel on cancer stem cells for cancer stem cell markers in cancer xenograft animal models.
Human cancer cells were implanted subcutaneously into the right abdomen of 5 to 7 weeks athymic nude mice. When the tumor size reaches 200 mm^3, administer 2-acetylnaphtho[2,3-b]furan-4,9-dione (for example, 50 mg/kg (BID) by oral gavage (n=3/group)), paclitaxel, or 2-acetylnaphtho[2,3-b]furan-4,9-dione combined with paclitaxel to treat animals. Tumors were collected 24 hours after the first dose.
The harvested tissues were fixed in 3.7% neutral buffered formaldehyde at 4° C. overnight. Paraffin embedding were performed. Cut those into approximately 5 microns and fix them on positively charged glass slides. After baking and deparaffinization, the slides with tumor or control tissue were incubated in 10 mM sodium citrate (pH 6.0) for 10 minutes. After antigen retrieval, use primary antibody P-STAT3 (Rabbit, Cell Signaling, 1:100), β-catenin (Mouse, Santa Cruz, 1:400) to label slides overnight at 4° C., and then use Alexa Fluor Fluorescent dye-conjugated secondary antibody (1:500, Invitrogen). After mounting, the glass slides containing DAPI (Invitrogen) with Prolong mounting medium were detected under the 20× objective lens of a Zeiss fluorescence microscope, and analyzed with Zen software.

[2] = system: human pancreatic adenocarcinoma (Panc-1); assay: Xenograft tumor mouse model, tumor size during treatment; type: in vivo, mice; conditions: FIG. 4; 2-acetylnaphtho[2,3-b]furan-4,9-dione 100 mg/kg PO bid; gemcitabine 80 mg/kg IV q3d; mean of five tumors
Protocol: The effects of 2-acetylnaphtho[2,3-b]furan-4,9-dione, the compound of formula (I), gemcitabine, and a combination of 2-acetylnaphtho[2,3-b]furan-4,9-dione and gemcitabine were studied. Specifically, immunosuppressed mice with established human pancreatic adenocarcinoma (Panc-1) were treated with vehicle control, 2-acetylnaphtho[2,3-b]furan-4,9-dione (100 mg/kg, PO, bid), gemcitabine (Gemzar, 80 mg/kg, IV, q3d), or the combination of 2-acetylnaphtho[2,3-b]furan-4,9-dione and gemcitabine. Tumor size was evaluated periodically during treatment. Each point represents the mean±SEM of five tumors.

[3] = system: advanced pancreatic cancer; assay: Phase II/III open label clinical study in patients who failed previous treatments (RECIST 1.1); type: in vivo, human; conditions: all patients receiving treatment
From the text: In a phase II/III extended open label international multicenter experiment, search the effect of the compound of formula (I), 2-acetylnaphtho[2,3-b]furan-4,9-dioen combined with paclitaxel and a low dose of gemcitabine on patients with advanced pancreatic cancer who have failed previous treatments.
In the clinical study, we observed the anti-tumor activity and safety of 2-acetylnaphtho[2,3-b]furan-4,9-dione combined with paclitaxel weekly and a low dose of gemcitabine in patients with advanced pancreatic cancer who failed previous treatment. There are imaging disease progressions in patients who have received at least first-line systemic treatment in the past and failed. Previous treatments include gemcitabine-based single-agent or combination chemotherapy, and/or FOLFIRINOX/mFOLFIRINOX chemotherapy. […]
The remission and progression of the tumor were evaluated according to the RECIST 1.1 standard. […]

[4] = system: STAT3 pathway; conditions: according to WO2009/036059; read-out: STAT3 pathway activity, cellular IC50; cited from earlier work

SMILES	expression (staining) of stem cell markers p-STAT3 and β-catenin [1]	tumor growth (tumor volume) [2]	adverse events related to the compound [3]	IC50 [4] [nM]
CC(=O)O[C@H]1C(=O)[C@@]2(C)[C@H]([C@H](OC(=O)c3ccccc3)[C@]3(O)C[C@H](OC(=O)[C@H](O)[C@@H](NC(=O)c4ccccc4)c4ccccc4)C(C)=C1C3(C)C)[C@]1(OC(C)=O)CO[C@@H]1C[C@@H]2O [paclitaxel, reference compound]	increased staining of stem cell markers	–	–	–
CC(=O)c1cc2c(o1)C(=O)c1ccccc1C2=O [2-acetylnaphtho[2,3-b]furan-4,9-dione]	significantly reduce the expression of stem cell markers p-STAT3 and β-catenin	showed certain effects in inhibiting tumor growth	mainly gastrointestinal adverse events	~250
Nc1ccn([C@@H]2O[C@H](CO)[C@@H](O)C2(F)F)c(=O)n1 [gemcitabine, reference compound]	–	showed certain effects in inhibiting tumor growth	–	–
